Experimental data reported in paper PMC3310380 (Journal of Biomolecular Screening, 2010).

How the values were obtained:
[1] = test system: EBV genome copy number in Raji Burkitt lymphoma cells; test: EBV genome maintenance assay in Raji cells; assay type: cell-based, Epstein-Barr virus; settings: six days, 50 μM
EBNA1 DBD = EBNA1 DBD (Epstein-Barr virus, UniProt P03211 459-607); test: EMSA
EBNA1 DBD, sequence (P03211 459-607): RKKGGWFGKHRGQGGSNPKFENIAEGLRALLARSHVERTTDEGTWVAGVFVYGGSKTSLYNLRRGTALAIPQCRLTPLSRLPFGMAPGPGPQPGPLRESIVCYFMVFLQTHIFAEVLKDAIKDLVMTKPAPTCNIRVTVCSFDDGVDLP

With `NC(=O)NO` [HU, hydroxyurea] the “EBV DNA copy number, of its original content relative to cellular actin” value [1] was ~ 48%.

B1: Probe A (dsDNA)
DNA 1: GGGTAGCATATGCTACCC
DNA 2: GGGTAGCATATGCTACCC
B1: binds (EBNA1 DBD).
